Common to all, as to format: in vivo
For experiment [1], the system named is rice. Kind of experiment: Safening effect against butachlor injury to rice, safening agent and herbicide incorporated in soil (Example 15, Table I). The note with it: safening agent 8.96 kg/h; butachlor 4.48 kg/h; ~21 days. Further details: key: herbicide-alone + safener-alone effect (max 100) minus combined effect. Here is the method: (§1) A good grade of top soil is placed in a container and compacted to a depth of approximately 1.27 cm. from the top of said container. A predetermined number of rice seeds to be tested are placed on top of the soil. A quantity of soil sufficient to substantially fill the container is measured and placed in a second container. A measured quantity of the safening agent dispersed or dissolved in a suitable carrier is applied to the soil in the second container. A measured quantity of butachlor dispersed or dissolved in a suitable carrier is then sprayed on the soil already treated with the safening agent. The soil containing the safening agent and herbicide is thoroughly mixed. This mixing is sometimes referred to as incorporation of the herbicide and safening agent into the soil. The mixing or incorporation provides a substantially uniform distribution of the safening agent and herbicide throughout the soil. The seeds are covered with the soil containing the safening agent and herbicide and the pans are leveled. The pans are then placed on a sand bench in the greenhouse and watered from below as needed. The plants are observed at the end of approximately 21 days and the results in terms of percent inhibition of each seed lot are recorded. For each test series a pan of plants is also prepared containing no herbicide and no safening agent as a control. Additionally, for each test, a pan of plants is prepared with soil covering the seed containing no herbicide and only the measured amount of safening agent being incorporated into the soil covering the seeds to ascertain any herbicidal effect of the safening agent alone. For each series of tests the herbicidal effect of the herbicide is observed from pans of plants treated with the same quantity of herbicide alone. The "safening effect" is determined by adding the hericidal effect of the herbicide when applied alone to the herbicidal effect of the safening agent when applied alone (in no instance, however, will this sum be greater than 100) and substracting from that the herbicidal effect obtained when the herbicide and safening agent are incorporated into the soil as discussed above.
Table I summarizes the results obtained when the compounds of the invention were tested in accordance with the procedure of Example 15.

The test system of experiment [2] is rice. Nature of the experiment: Safening effect against butachlor injury to pre-soaked rice, soil surface application, flooded pots (Example 16, Table II). Also on record: key: herbicide injury alone + safener injury alone (max 100) minus combined injury. The note with it: safening agent 1.12 kg/h, ~21 days, mean of two replicates. As for the experimental part: as §1
A good grade of top soil is placed in a plastic pot. A measured quantity of the safening agent dispersed or dissolved in a suitable carrier is sprayed on the soil surface. A measured quantity of butachlor herbicide dissolved in a solvent is sprayed on the soil surface. Presoaked rice is seeded into the pots that were previously flooded with water and the water level lowered below the soil surface for one week. The pots are flooded at least up to the soil surface for the duration of the test. The plants are observed at the end of approximately 21 days and the results in terms of the percent inhibition of rice is recorded. As in Example 15, for each test pots are prepared containing soil treated only with butachlor. For each test, pots are also prepared containing soil treated only with the safening agent. Pots are also prepared in which the soil is not treated with either the herbicide or the safening agent. The safening effect is determined in accordance with Example 15.
Table II summarizes the results obtained when the compounds of the invention were tested in accordance with the procedure of Example 16.

A further experiment relates to Barnyard Grass. Kind of experiment: Percent inhibition of barnyard grass, mixture incorporated in soil cover layer (Example 19, Table V). The conditions noted are these: ~21 days. From the text: (§2) 5.08 cm. of a good grade of top soil is placed in a 7.62 cm. deep plastic pot. A predetermined number of weed seeds and rice seeds are applied to the soil surface. Butachlor and ethyl 2-chloro-4-phenyl-5-thiazolecarboxylate are applied to a soil cover layer as a mixture and incorporated by shaking the treated soil cover layer in a plastic bag. The cover layers were then placed on the pre-seeded pots. The plants are observed at the end of approximately 21 days and the results in terms of percent inhibition recorded. For each test, pots are prepared containing soil treated only with butachlor. For each test, pots are prepared containing soil treated only with the safening agent. Pots are also prepared with untreated soil.

A further experiment concerns Crabgrass. Kind of experiment: Percent inhibition of crabgrass, mixture incorporated in soil cover layer (Example 19, Table V). The note with it: ~21 days.
Excerpt: as §2

In the next experiment the test system is Panicum. Kind of experiment: Percent inhibition of panicum, mixture incorporated in soil cover layer (Example 19, Table V). The conditions noted are these: ~21 days.
Excerpt: as §2

Another experiment has as its system Foxtail. Kind of experiment: Percent inhibition of foxtail, mixture incorporated in soil cover layer (Example 19, Table V). The conditions noted are these: ~21 days.
Excerpt: as §2

Experiment [3] relates to rice. Nature of the experiment: Percent inhibition of rice, mixture incorporated in soil cover layer (Example 19, Table V). The note with it: ~21 days.
Excerpt: as §2

Where [4] appears, read: safening agent 8.96 kg/h + butachlor 2.24 kg/h.
Where [5] appears, read: safening agent 8.96 kg/h + butachlor 4.48 kg/h.
Where [6] appears, read: safening agent 8.96 kg/h + butachlor 8.96 kg/h.

Consider `CCOC(=O)c1sc(Cl)nc1-c1ccccc1` [Example 1, Ethyl 2-Chloro-4-Phenyl-5-Thiazolecarboxylate], for which the “Safening Effect” value with rice [1] worked out at 75; in the experiment with rice [2] (butachlor 0.14 kg/h), 78; in the experiment with rice [2] (butachlor 0.56 kg/h) it was 99. Also, the “Percent Inhibition, Barnyard Grass” value with Barnyard Grass (setting [4]) is reported as 100%; in the experiment on Barnyard Grass (setting [5]), 100%; with Barnyard Grass (setting [6]) it was 100%; in the experiment on Barnyard Grass (safening agent alone 8.96 kg/h), 0%. The “Percent Inhibition, Crabgrass” value in the experiment on Crabgrass (setting [4]) turned out to be 100%; in the experiment on Crabgrass (setting [5]) it was 100%; in the experiment with Crabgrass (setting [6]) it was 100%; in the experiment with Crabgrass (safening agent alone 8.96 kg/h) it was 0%. The “Percent Inhibition, Panicum” value in the experiment on Panicum (setting [4]) is given as 100%; in the experiment on Panicum (setting [5]), 100%; in the experiment on Panicum (setting [6]) it was 100%; with Panicum (safening agent alone 8.96 kg/h), 0%. The “Percent Inhibition, Foxtail” value in the experiment with Foxtail (setting [4]) is listed as 100%; in the experiment with Foxtail (setting [5]) it was 100%; in the experiment with Foxtail (setting [6]), 100%; in the experiment on Foxtail (safening agent alone 8.96 kg/h), 0%. In addition, the “Percent Inhibition, Rice” value came out at 8% with rice [3] (setting [4]), 43% in the experiment on rice [3] (setting [5]), 45% in the experiment with rice [3] (setting [6]) and 0% in the experiment on rice [3] (safening agent alone 8.96 kg/h).
